Our source for the IC50 values is EP2951180B1, “2,6,7,8 SUBSTITUTED PURINES AS HDM2 INHIBITORS” (Merck Sharp & Dohme Corp., priority 2013, dated 2014).

Read-outs that look alike come from different tables or passages of the source.

For this test, the target named is T1, HDM2 (Homo sapiens, UniProt Q00987).
T1 construct: Thioredoxin (N); made in house; host or cells: E. coli strain BL21(DE3)Rosetta
Briefly: HDM2 FRET assay (inhibition of binding of FITC labeled p53-pocket peptide to HDM2). To be noted: read-out: FRET IC50. Summed up:
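Displacement of FITC-p53 peptide (3 nM) from His-tagged HDM2 (0.5 nM) is measured by Tb-to-fluorescein FRET in PBS, 0.01% BSA, 0.01% Tween-20. IC50 values derive from 10-point curves.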

The mark [1] stands for this setting: 0.5 nM HDM2 (residues 17 to 125), 3nM peptide, two hour incubation at room temperature.

T1 sequence (Q00987 17-125): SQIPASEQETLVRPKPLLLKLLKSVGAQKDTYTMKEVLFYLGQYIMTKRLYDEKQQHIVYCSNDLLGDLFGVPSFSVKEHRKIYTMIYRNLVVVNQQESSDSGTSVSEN

As to `C[C@@H]1CN(C(=O)OC(C)(C)C)[C@@H](C)CN1c1nc2nc(-c3noc(=O)[nH]3)nc(N[C@H](C)C3CCC3)c2n1C[C@H]1CC[C@H](C)CC1` [Example 17.20, tert-butyl (2S,5R)-4-[6-{[(1R)-1-cyclobutylethyl]amino}-7-[(trans-4-methylcyclohexyl)methyl]-2-(5-oxo-4,5-dihydro-1,2,4-oxadiazol-3-yl)-7H-purin-8-yl]-2,5-dimethylpiperazine-1-carboxylate], the IC50 (Table 17.2) amounted to 14.7 nM.
Consider `C[C@@H](Nc1nc(C(=O)O)nc2nc(-c3ccc4sccc4c3)n(Cc3ccc(C(F)(F)F)cc3)c12)C1CC1` [Example 6.13, 8-(1-benzothiophen-5-yl)-6-{[(1R)-1-cyclopropylethyl]amino}-7-[4-(trifluoromethyl)benzyl]-7H-purine-2-carboxylic acid], for which, for the setting “Table 6”, the IC50 was 16.3 nM.
For the molecule `CONC(=O)c1nc(N[C@H](C)C2CCC2)c2c(n1)nc(-c1cc(C(C)C)ccn1)n2Cc1ccc(C(F)(F)F)cc1` [Example 12.32, 6-{[(1R)-1-cyclobutylethyl]amino}-N-methoxy-8-[4-(1-methylethyl)pyridin-2-yl]-7-[4-(trifluoromethyl)benzyl]-7H-purine-2-carboxamide], the IC50 under setting [1] is 42.5 nM.
Still for that read-out and setting: as for `C[C@H]1CC[C@H](Cn2c(N3CCO[C@H]4CCC[C@@H]43)nc3nc(-c4n[nH]c(=O)o4)nc(-c4cncc(Cl)c4)c32)CC1` [Example 16.91, 5-{6-(5-chloropyridin-3-yl)-8-[(4aS,7aS)-hexahydrocyclopenta [b][1,4]oxazin-4(4aH)-yl]-7-[(trans-4-methylcyclohexyl)methyl]-7H-purin-2-yl}-1,3,4-oxadiazol-2(3H)-one], the figure is 403 nM.
With `C[C@@H](Nc1nc(-c2noc(=O)[nH]2)nc2nc(C(C)(O)c3cccnc3)n(C[C@H]3CC[C@H](C)CC3)c12)C1CCC1` (stereo partly drawn) [Example 22.51, 3-(6-{[(1R)-1-cyclobutylethyl]amino}-8-(1-hydroxy-1-pyridin-3-ylethyl)-7-[(trans-4-methylcyclohexyl)methyl] -7H-purin-2-yl)-1,2,4-oxadiazol-5(2H)-one], the IC50 (Table 22) came out at 21.2 nM.
As for `C[C@H]1CC[C@H](Cn2c(N3CCOC[C@H]3c3ccccc3)nc3nc(-c4noc(=O)[nH]4)nc(-c4cccc(C(F)F)c4)c32)CC1` [Example 16.31, 3-{6-[3-(difluoromethyl)phenyl]-7-[(trans-4-methylcyclohexyl)methyl]-8-[(3R)-3-phenylmorpholin-4-yl]-7H-purin-2-yl}-1,2,4-oxadiazol-5(4H)-one], the IC50 under setting [1] turned out to be 7.11 nM.
For `C[C@@H](Nc1nc(-c2noc(=O)[nH]2)nc2nc(N3CCOC[C@H]3c3ccccc3)n(Cc3ccc(Cl)c(F)c3)c12)C1CCC1` [Example 9.4, 3-{7-(4-chloro-3-fluorobenzyl)-6-{[(1R)-1-cyclobutylethyl]amino}-8-[(3R)-3-phenylmorpholin-4-yl]-7H-purin-2-yl}-1,2,4-oxadiazol-5(4H)-one], the IC50 (Table 9) was determined as 0.848 nM.
Consider `CC([C@H]1CC[C@H](C)CC1)n1c(N2CCC[C@H]2CF)nc2nc(-c3noc(=O)[nH]3)nc(-c3cncc(Cl)c3)c21` (single isomer, unassigned) [Example 18.46], for which, where the note is “Table 18”, the IC50 stood at 5.49 nM.
Take `CC(C)(CO)Nc1nc2nc(-c3noc(=O)[nH]3)nc(-c3cccc(Cl)c3)c2n1C[C@H]1CC[C@H](C)CC1` [Example 16.41, 3-{6-(3-chlorophenyl)-8-[(2-hydroxy-1,1-dimethylethyl)amino] -7-[(trans-4-methylcyclohexyl)methyl]-7H-purin-2-yl}-1,2,4-oxadiazol-5(4H)-one]: the IC50 under setting [1] stood at 17.8 nM.
As to `CC([C@H]1CC[C@H](C)CC1)n1c(N2CCC[C@H]2CF)nc2nc(-c3n[nH]c(=O)o3)nc(-c3cncc(Cl)c3)c21` (single isomer, unassigned) [Example 18.48], the half-inhibitory concentration (IC50) (Table 18) stood at 8.12 nM.
